Measurements taken from the NIST ThermoML archive (doi:10.1016/j.jct.2015.08.014).
± gives the expanded uncertainty stated by the source.

Test: xn = mol fraction of the nth substance listed
Conditions: 100 kPa, Liquid; for electrical conductivity: Alternating current cell with electrodes; for mass density: Vibrating tube method; for viscosity: Capillary tube (Ostwald / Ubbelohde) method

CCCC[N+]1(C)CCCC1.N#CN=C=[N-] [1-butyl-1-methylpyrrolidinium dicyanamide] + O=C1CCCO1
Conditions	electrical conductivity [S/m]
303.15 K, Frequency=0.00857143 MHz, x1 = 0.2493	2.86 ± 0.029
303.15 K, Frequency=0.00857143 MHz, x1 = 0.3029	2.79 ± 0.028
303.15 K, Frequency=0.00857143 MHz, x1 = 0.3845	2.62 ± 0.026
303.15 K, Frequency=0.00857143 MHz, x1 = 0.4985	2.33 ± 0.024
303.15 K, Frequency=0.00857143 MHz, x1 = 0.6954	1.913 ± 0.019
303.15 K, Frequency=0.00857143 MHz, x1 = 0.9013	1.609 ± 0.016
303.15 K, Frequency=0.00857143 MHz, x1 = 1	1.527 ± 0.015
303.15 K, Frequency=0.00892857 MHz, x1 = 0.0463	1.58 ± 0.028
303.15 K, Frequency=0.00892857 MHz, x1 = 0.0987	2.38 ± 0.03
303.15 K, Frequency=0.00892857 MHz, x1 = 0.1449	2.71 ± 0.029
303.15 K, Frequency=0.00892857 MHz, x1 = 0.1859	2.902 ± 0.029
303.15 K, Frequency=0.00892857 MHz, x1 = 0.2493	2.86 ± 0.029
303.15 K, Frequency=0.00892857 MHz, x1 = 0.3029	2.79 ± 0.028
303.15 K, Frequency=0.00892857 MHz, x1 = 0.3845	2.62 ± 0.026
303.15 K, Frequency=0.00892857 MHz, x1 = 0.4985	2.33 ± 0.024
303.15 K, Frequency=0.00892857 MHz, x1 = 0.6954	1.913 ± 0.019
303.15 K, Frequency=0.00892857 MHz, x1 = 0.9013	1.609 ± 0.016
303.15 K, Frequency=0.00892857 MHz, x1 = 1	1.527 ± 0.015
303.15 K, Frequency=0.00961538 MHz, x1 = 0.0463	1.58 ± 0.028
303.15 K, Frequency=0.00961538 MHz, x1 = 0.0987	2.38 ± 0.03
303.15 K, Frequency=0.00961538 MHz, x1 = 0.1449	2.71 ± 0.029
303.15 K, Frequency=0.00961538 MHz, x1 = 0.1859	2.903 ± 0.029
303.15 K, Frequency=0.00961538 MHz, x1 = 0.2493	2.86 ± 0.029
303.15 K, Frequency=0.00961538 MHz, x1 = 0.3029	2.79 ± 0.028
303.15 K, Frequency=0.00961538 MHz, x1 = 0.3845	2.62 ± 0.026
303.15 K, Frequency=0.00961538 MHz, x1 = 0.4985	2.33 ± 0.024
303.15 K, Frequency=0.00961538 MHz, x1 = 0.6954	1.913 ± 0.019
303.15 K, Frequency=0.00961538 MHz, x1 = 0.9013	1.609 ± 0.016
303.15 K, Frequency=0.00961538 MHz, x1 = 1	1.527 ± 0.015
303.15 K, Frequency=0.01 MHz, x1 = 0.0463	1.58 ± 0.028
303.15 K, Frequency=0.01 MHz, x1 = 0.0987	2.38 ± 0.03
303.15 K, Frequency=0.01 MHz, x1 = 0.1449	2.71 ± 0.029
303.15 K, Frequency=0.01 MHz, x1 = 0.1859	2.903 ± 0.029
303.15 K, Frequency=0.01 MHz, x1 = 0.2493	2.86 ± 0.029
303.15 K, Frequency=0.01 MHz, x1 = 0.3029	2.79 ± 0.028
303.15 K, Frequency=0.01 MHz, x1 = 0.3845	2.62 ± 0.026
303.15 K, Frequency=0.01 MHz, x1 = 0.4985	2.33 ± 0.024
303.15 K, Frequency=0.01 MHz, x1 = 0.6954	1.913 ± 0.019
303.15 K, Frequency=0.01 MHz, x1 = 0.9013	1.609 ± 0.016
303.15 K, Frequency=0.01 MHz, x1 = 1	1.527 ± 0.015
313.15 K, Frequency=0.0005 MHz, x1 = 0.0463	1.78 ± 0.032
313.15 K, Frequency=0.0005 MHz, x1 = 0.0987	2.71 ± 0.034
313.15 K, Frequency=0.0005 MHz, x1 = 0.1449	3.13 ± 0.033
313.15 K, Frequency=0.0005 MHz, x1 = 0.1859	3.34 ± 0.034
313.15 K, Frequency=0.0005 MHz, x1 = 0.2493	3.35 ± 0.034
313.15 K, Frequency=0.0005 MHz, x1 = 0.3029	3.302 ± 0.033
313.15 K, Frequency=0.0005 MHz, x1 = 0.3845	3.15 ± 0.032
313.15 K, Frequency=0.0005 MHz, x1 = 0.4985	2.87 ± 0.029
313.15 K, Frequency=0.0005 MHz, x1 = 0.6954	2.421 ± 0.024
313.15 K, Frequency=0.0005 MHz, x1 = 0.9013	2.08 ± 0.021
313.15 K, Frequency=0.0005 MHz, x1 = 1	1.99 ± 0.02
313.15 K, Frequency=0.001 MHz, x1 = 0.0463	1.78 ± 0.032
313.15 K, Frequency=0.001 MHz, x1 = 0.0987	2.71 ± 0.034
313.15 K, Frequency=0.001 MHz, x1 = 0.1449	3.13 ± 0.033
313.15 K, Frequency=0.001 MHz, x1 = 0.1859	3.35 ± 0.034
313.15 K, Frequency=0.001 MHz, x1 = 0.2493	3.36 ± 0.034
313.15 K, Frequency=0.001 MHz, x1 = 0.3029	3.309 ± 0.033
313.15 K, Frequency=0.001 MHz, x1 = 0.3845	3.15 ± 0.032
313.15 K, Frequency=0.001 MHz, x1 = 0.4985	2.87 ± 0.029
313.15 K, Frequency=0.001 MHz, x1 = 0.6954	2.422 ± 0.024
313.15 K, Frequency=0.001 MHz, x1 = 0.9013	2.08 ± 0.021
313.15 K, Frequency=0.001 MHz, x1 = 1	2 ± 0.02
313.15 K, Frequency=0.0015 MHz, x1 = 0.0463	1.79 ± 0.032
313.15 K, Frequency=0.0015 MHz, x1 = 0.0987	2.72 ± 0.034
313.15 K, Frequency=0.0015 MHz, x1 = 0.1449	3.13 ± 0.033
313.15 K, Frequency=0.0015 MHz, x1 = 0.1859	3.35 ± 0.034
313.15 K, Frequency=0.0015 MHz, x1 = 0.2493	3.36 ± 0.034
313.15 K, Frequency=0.0015 MHz, x1 = 0.3029	3.312 ± 0.033
313.15 K, Frequency=0.0015 MHz, x1 = 0.3845	3.16 ± 0.032
313.15 K, Frequency=0.0015 MHz, x1 = 0.4985	2.87 ± 0.029
313.15 K, Frequency=0.0015 MHz, x1 = 0.6954	2.424 ± 0.024
313.15 K, Frequency=0.0015 MHz, x1 = 0.9013	2.09 ± 0.021
313.15 K, Frequency=0.0015 MHz, x1 = 1	2 ± 0.02
313.15 K, Frequency=0.002 MHz, x1 = 0.0463	1.79 ± 0.032
313.15 K, Frequency=0.002 MHz, x1 = 0.0987	2.72 ± 0.034
313.15 K, Frequency=0.002 MHz, x1 = 0.1449	3.13 ± 0.033
313.15 K, Frequency=0.002 MHz, x1 = 0.1859	3.36 ± 0.034
313.15 K, Frequency=0.002 MHz, x1 = 0.2493	3.36 ± 0.034
313.15 K, Frequency=0.002 MHz, x1 = 0.3029	3.314 ± 0.033
313.15 K, Frequency=0.002 MHz, x1 = 0.3845	3.16 ± 0.032
313.15 K, Frequency=0.002 MHz, x1 = 0.4985	2.87 ± 0.029
313.15 K, Frequency=0.002 MHz, x1 = 0.6954	2.424 ± 0.024
313.15 K, Frequency=0.002 MHz, x1 = 0.9013	2.09 ± 0.021

Conditions	electrical conductivity, 313.15 K [S/m]	mass density, 303.15 K [kg/m3]	viscosity, 313.15 K [mPa·s]
x1 = 0.0463	1.79 ± 0.032	–	–
x1 = 0.0987	2.73 ± 0.034	1099.02 ± 8.8	2.18 ± 0.05
x1 = 0.1449	3.13 ± 0.033	–	–
x1 = 0.1859	3.37 ± 0.034	1083.47 ± 8.7	3.04 ± 0.07
x1 = 0.2493	3.36 ± 0.034	–	–
x1 = 0.3029	3.319 ± 0.033	1066.18 ± 8.5	4.52 ± 0.1
x1 = 0.3845	3.16 ± 0.032	–	–
x1 = 0.4985	2.88 ± 0.029	1044.28 ± 8.4	7.85 ± 0.17
x1 = 0.6954	2.426 ± 0.024	1028.17 ± 8.2	12.31 ± 0.27
x1 = 0.9013	2.09 ± 0.021	1015.57 ± 8.2	18.01 ± 0.41
x1 = 1	2 ± 0.02	1010.64 ± 8.1	21.07 ± 0.48
